US20210386828A1, “METHODS FOR ENHANCING CANCER IMMUNOTHERAPY” (The Regents of the University of California, priority 2018, published 2021)

Experiments:
Myc-CaP cells [1] = test: qRT-PCR of MHC-I component mRNAs in Myc-CaP cells; type: cell-based, mouse; settings: for effect of exogenous IFNγ on induction of MHC-I antigen presentation and processing genes by the platinoid: plus IFNγ
Excerpt: (§1) Each dot represents an experiment and horizontal lines denote the median.

Myc-CaP cells [2] = test: Surface MHC (H-2Kq) expression by flow cytometry; type: cell-based, mouse; settings: for surface expression of H-2Kq: agent as named; for effect on the H-2Kq response to IFNγ: platinoid plus IFNγ
Excerpt: as §1

[3] = test system: Myc-CaP and TRAMP-C2 cells; test: RNA-seq of mouse PCa cells incubated with platinoids; type: cell-based; settings: 2 μM, Myc-CaP
Description: FIGS. 1E-1G show total RNA from Myc-CaP cells incubated with indicated agents for 24 hr was subjected to RNA-seq. Top 20 hallmark gene sets were sorted by normalized enrichment score (NES). Immune-related gene sets are in blue (IFNγ signaling in light blue).
The top 20 hallmark gene sets sorted by normalized enrichment score (NES) are shown to depict the Oxali- and Cis-induced responses determined by GSEA analysis. Immune-related gene sets are colored blue (IFNγ signaling in light blue). […] Immune-related gene sets are in blue (IFNγ signaling in light blue).
To investigate how low-dose Oxali affects the PCa transcriptome, RNA sequencing (RNA-seq) was conducted on mouse PCa cells (Myc-CaP and TRAMP-C2) incubated with 2 μM of either Oxali or Cisplatin (Cis), a platinoid that, unlike Oxali, minimally enhances the response to PD-L1 blockade or ISP ablation (Pfirschke et al., 2016; Shalapour et al., 2015).

Myc-CaP cells [4] = test: Immunoblot of IRF1 and phosphorylated STAT1; type: cell-based, mouse
Excerpt: Protein loading was confirmed with tubulin antibodies.
The basis for the synergy between low-dose Oxali and IFNγ was investigated. […] Given the ability of Oxali to induce Ifngr2 mRNA expression, not only in Myc-CaP cells (FIG. 2D) but also in mouse and human melanoma cell lines (FIGS. 11C and 11D), it was postulated that the synergistic activation of IRF1 and STAT1 by Oxali plus IFNγ may be due to IFNγR2 induction.

Myc-CaP cells [5] = test system: Myc-CaP cells
Description: (§2) CRISPR-Cas9 was used to ablate cyclic GMP-AMP synthase (cGAS, encoded by Mb21d1) and Ifnar2 (FIG. 11K).

Myc-CaP cells [6] = test: Nuclear abundance of transcription factors (IB, flow cytometry); type: cell-based, mouse; settings: 2 μM Oxali
Myc-CaP cells [7] = test: Stress, DNA damage and type I IFN responses (IB, qRT-PCR)
Description: as §2

Myc-CaP cells [8] = test: ATAC-seq of chromatin accessibility; type: cell-based, mouse
Excerpt: FIGS. 4A-4D are pictorial and graphical diagrams showing low dose Oxali alters chromatin accessibility of MHC-I related genes. […] The Venn diagram compares gene expression between untreated and differently treated cells (left). The heat map depicts differentially expressed genes involved in the indicated pathways (right). […] The Venn diagram presents the number of binding site changes and overlaps after each treatment (left). FIGS. 4C-4D show detailed ATAC seq analyses of the Nfkb1 gene (FIG. 4C) and a mouse Chr17 gene cluster containing Psmb8, Psmb9, Tap1 and Tap2 (FIG. 4D). Changes in transcription factor (TF) binding site accessibility are compared to RNA seq results. The affected TF binding sites are depicted below each panel.
FIGS. 12A-12C are pictorial and graphical diagrams showing that low dose Oxali enhances chromatin accessibility of MHC-I related genes.
To better understand the transcriptional mechanisms underlying the response to Oxali, RNA-seq and ATAC-seq analyses were conducted on Myc-CaP cells that were incubated with either 2 μM Oxali, 1 ng/mL IFNγ, or a combination of the two. By coupling ATAC-seq, a method for assessing transcription factor binding site accessibility (Buenrostro et al., 2015), with RNA-seq, transcription factor loading can be correlated with actual transcriptional changes.
Of note, the NF-κB pathway, represented by the Nfkb1 gene, was stimulated by Oxali but not IFNγ. […] To examine activation of the antigen processing and presentation pathway, a gene cluster on mouse chromosome 17 harboring Psmb9, Tap1, Psmb8, and Tap2 was analyzed. […] However, IFNγ further enhanced transcription factor accessibility in Oxali-treated cells (FIG. 4D), an effect that was consistent with the transcriptomic analysis (FIG. 4A). […] Similarly, the Erap1 locus, which is induced by both Oxali and IFNγ, was made more accessible by Oxali relative to IFNγ treatment (FIG. 12C). […] The addition of IFNγ expanded this response to include E2F6, JUNB, HIF-lb, KLF3, and DMRT6 binding sites. Of note, the chromosome 17 MHC-I region opened by Oxali contained recognition sites for BORIS and CTCF, two general transcription factors responsible for chromatin opening (Li et al., 2012).

p300/CBP = test: p300 immunoblot and imaging; type: cell-based, mouse; settings: high resolution imaging
MC-38 cells = test: Mass spectrometry peptidomic profiling of H-2Kb and H-2Db bound peptides; type: cell-based, mouse; settings: H-2Db experiment
Description: Tubulin was used as loading control.
To confirm the ability of Oxali to potentiate antigen presentation, mass spectrometry-based peptidomic profiling of H-2Kb and H-2Db molecules isolated from MC-38 cells was conducted.

[9] = cells incubated with Oxali or Oxali+IFNγ

N.N.O=C([O-])C1(C(=O)[O-])CCC1.[Pt+2] [Carbo, carboplatin]
effect of exogenous IFNγ on induction of MHC-I antigen presentation and processing genes by the platinoid (Myc-CaP cells [1]): not as strong as that of Oxali+IFNγ | surface expression of H-2Kq (Myc-CaP cells [2]): barely induced surface H-2Kq | effect on the H-2Kq response to IFNγ (Myc-CaP cells [2]): potentiated the response to IFNγ

N.N.[Cl][Pt][Cl] [Cis, Cisplatin]
induction of gene set responsive to NF-κB-dependent TNF signaling [3]: strongly induced | effect of exogenous IFNγ on induction of MHC-I antigen presentation and processing genes by the platinoid (Myc-CaP cells [1]): not as strong as that of Oxali+IFNγ | effect on IRF1 induction by IFNγ (Myc-CaP cells [4]; added to IFNγ): strongly potentiated | STAT1 phosphorylation (Myc-CaP cells [4]; added to IFNγ-treated cells): dramatically increased | γH2AX, marker of DNA damage (Myc-CaP cells [5]): γH2AX induction | surface expression of H-2Kq (Myc-CaP cells [2]): barely induced surface H-2Kq | effect on the H-2Kq response to IFNγ (Myc-CaP cells [2]): potentiated the response to IFNγ | nuclear abundance of p65, NF-κB, CREB1, ATF3, P-ATM and JunB (Myc-CaP cells [6]): more transient and weaker effect

COc1c(Cl)cc2c([nH]c3cnccc32)c1NC(=O)c1cccnc1C [ML120B]
synergistic Psmb9 and Nlrc5 mRNA induction under IKKβ inhibition (Myc-CaP cells [1]; Oxali+IFNγ): attenuated | decrease in Ifngr2 mRNA (Myc-CaP cells [1]; [9]): 4 fold | H-2Kq surface expression under IKKβ inhibition (Myc-CaP cells [2]; [9]): reduced

Cc1[nH]c2ccccc2c1CCNCc1ccc(/C=C/C(=O)NO)cc1 [Panabinostat]
transcriptional response (MHC-I gene induction) compared with low dose Oxali (Myc-CaP cells [1]; HDAC inhibitor): nearly the same transcriptional response as low dose Oxali | Tap1, Nlrc5, Tapasin, Lmp2, and Ifngr2 mRNAs (Myc-CaP cells [1]; dose that did not induce cell death): induced | surface H-2Kq expression on addition of low dose Oxali (Myc-CaP cells [2]; Panabinostat plus low dose Oxali): potentiated | surface expression of H-2Kq (Myc-CaP cells [2]): induced

IFNγ: exogenous interferon gamma
effect on MHC-I genes compared with low-dose Oxali (Myc-CaP cells [1]; IFNγ at 200 pg/mL, Myc-CaP and other cell lines): weaker than the effect of low-dose (2 μM) Oxali | Ifngr2 mRNA (Myc-CaP cells [1]; IFNγ on its own, any of the analyzed cell lines): did not induce | IRF1 expression (Myc-CaP cells [4]; Oxali at 2 μM): weak IRF1 induction | eIF2α phosphorylation and CHOP expression (Myc-CaP cells [7]): no effect | transcription factor accessibility of chromosome 17 cluster Psmb9, Tap1, Psmb8, Tap2 (Myc-CaP cells [8]): barely affected | accessibility of transcription factor binding sites at the Nfkb1 locus (Myc-CaP cells [8]; 2 μM Oxali, 1 ng/mL IFNγ): barely had any effect | nuclear foci / nucleolar localization of p300 (p300/CBP): not | amounts of H-2Db MHC-I-bound peptides (MC-38 cells): higher amounts of MHC-I-bound peptides than Oxali treated cells
